The structures appear in SMILES notation.

As to `CC(C)n1nc(-c2sc(NC(=O)c3ccc(CNCCN4CCOCC4)cc3)nc2-c2ccccc2)ccc1=O` [Example 140, N-[5-(1-Isopropyl-6-oxo-1,6-dihydro-3-pyridazinyl)-4-phenyl-1,3-thiazol-2-yl]-4-({[2-(4-morpholinyl)ethyl]amino}methyl)benzamide], the melting point was 86 to 88 °C.

`CC(C)n1nc(-c2sc(NC(=O)c3ccc(CNCCO)cc3)nc2-c2ccccc2)ccc1=O` [Example 138, 4-{[(2-Hydroxyethyl)amino]methyl}-N-[5-(1-isopropyl-6-oxo-1,6-dihydro-3-pyridazinyl)-4-phenyl-1,3-thiazol-2-yl]benzamide] registered a melting point of 111 to 113 °C.

`CC(C)n1nc(-c2sc(C(=O)NCCc3ccccn3)nc2-c2ccc(F)cc2)ccc1=O` [Example 237, 4-(4-Fluorophenyl)-5-(1-isopropyl-6-oxo-1,6-dihydro-3-pyridazinyl)-N-[2-(2-pyridinyl)ethyl]-1,3-thiazole-2-carboxamide]: the melting point is 144 to 145 °C.

`Br.CCCCNc1nc(-c2ccccc2)c(-c2ccc(=O)n(C(C)C)n2)s1` displayed a melting point of 204 to 205 °C.

As to `CC(C)n1nc(-c2sc(NC(=O)CN3CCOCC3)nc2-c2ccccc2)ccc1=O.Cl`, the melting point was in the range of 252 to 253 °C.

As for `CCCNC(=O)c1nc(-c2ccccc2)c(-c2ccc(=O)n(CC)n2)s1` [Example 171, 5-(1-ethyl-6-oxo-1,6-dihydro-3-pyridazinyl)-4-phenyl-N-propyl-1,3-thiazole-2-carboxamide], the melting point is 106.5 to 107.5 °C.

Take `COc1ccccc1C(=O)Nc1nc(-c2ccccc2)c(-c2ccc(=O)n(C(C)C)n2)s1` [Example 41, N-[5-(1-Isopropyl-6-oxo-1,6-dihydro-3-pyridazinyl)-4-phenyl-1,3-thiazol-2-yl]-2-methoxybenzamide]: the melting point was over 250 °C.

`CC(C)n1nc(-c2sc(NC(=O)c3ccc(Cn4ccnc4)cc3)nc2-c2ccccc2)ccc1=O` [Example 139, 4-(1H-Imidazol-1-ylmethyl)-N-[5-(1-isopropyl-6-oxo-1,6-dihydro-3-pyridazinyl)-4-phenyl-1,3-thiazol-2-yl]benzamide] returned a melting point of over 250 °C.

For `CC(C)n1nc(-c2sc(NC(=O)c3ccccn3)nc2-c2ccccc2)ccc1=O` [Example 26, N-[5-(1-Isopropyl-6-oxo-1,6-dihydro-3-pyridazinyl)-4-phenyl-1,3-thiazol-2-yl]-2-pyridinecarboxamide], the melting point lay within 245 to 246 °C.

Molecule `C=CCn1nc(-c2sc(N)nc2-c2ccccc2)ccc1=O` [Example 93, 2-Allyl-6-(2-amino-4-phenyl-1,3-thiazol-5-yl)-3(2H)-pyridazinone] showed a melting point of 212 to 215 °C.

For `CC(C)n1nc(-c2sc(C(=O)NC3CC3)nc2-c2ccccc2F)ccc1=O` [Example 196, N-cyclopropyl-4-(2-fluorophenyl)-5-(1-isopropyl-6-oxo-1,6-dihydro-3-pyridazinyl)-1,3-thiazole-2-carboxamide], the melting point lay within 133.5 to 135 °C.

As to `CC(C)n1nc(-c2sc(NC(=O)C3CCCCC3)nc2-c2ccccc2)ccc1=O` [Example 7, N-[5-(1-Isopropyl-6-oxo-1,6-dihydro-3-pyridazinyl)-4-phenyl-1,3-thiazol-2-yl]cyclohexanecarboxamide], the melting point is 234 to 236 °C.

In turn, `CC(C)n1nc(-c2sc(NC(=O)CNCc3cccnc3)nc2-c2ccccc2)ccc1=O` [Example 120, N-[5-(1-Isopropyl-6-oxo-1,6-dihydro-3-pyridazinyl)-4-phenyl-1,3-thiazol-2-yl]-2-[(3-pyridinylmethyl)amino]acetamide] registered a melting point of 156 to 158 °C.

Consider `CC(C)n1nc(-c2sc(NCCCN3CCOCC3)nc2-c2ccccc2)ccc1=O.Cl.Cl`, for which the melting point was in the range of 150 to 153 °C.

As to `CC(C)n1nc(-c2sc(C(=O)NC3CC3)nc2-c2cccc(Cl)c2)ccc1=O` [Example 199, 4-(3-chlorophenyl)-N-cyclopropyl-5-(1-isopropyl-6-oxo-1,6-dihydro-3-pyridazinyl)-1,3-thiazole-2-carboxamide], the melting point fell in the range of 118.5 to 119.5 °C.

For the molecule `COCCNCCC(=O)Nc1nc(-c2ccccc2)c(-c2ccc(=O)n(C(C)C)n2)s1` [Example 122, N-[5-(1-Isopropyl-6-oxo-1,6-dihydro-3-pyridazinyl)-4-phenyl-1,3-thiazol-2-Yl]-3-[(2-methoxyethyl)amino]propanamide], the melting point lay in the range of 167 to 168 °C.

As to `CC(C)NC(=O)c1nc(-c2ccccc2)c(-c2ccc(=O)n(C(C)C)n2)s1` [Example 180, N-isopropyl-5-(1-isopropyl-6-oxo-1,6-dihydro-3-pyridazinyl)-4-phenyl-1,3-thiazole-2-carboxamide], the melting point fell in the range of 131 to 132.5 °C.

The molecule `O=c1ccc(-c2sc(NCc3ccccc3)nc2-c2ccccc2)nn1Cc1ccccc1` [Example 92, 2-benzyl-6-[2-(benzylamino)-4-phenyl-1,3-thiazol-5-yl]-3(2H)-pyridazinone] came in with a melting point of 163.5 to 165 °C.

For the molecule `COCCn1nc(-c2sc(C(=O)NC(C)C)nc2-c2ccccc2)ccc1=O` [Example 183, N-isopropyl-5-[1-(2-methoxyethyl)-6-oxo-1,6-dihydro-3-pyridazinyl]-4-phenyl-1,3-thiazole-2-carboxamide], the melting point fell in the range of 172 to 172.5 °C.

As for `CC(C)n1nc(-c2sc(NCc3ccccn3)nc2-c2ccccc2)ccc1=O` [Example 20, 2-Isopropyl-6-{4-phenyl-2-[(2-pyridinylmethyl)amino]-1,3-thiazol-5-yl}-3(2H)-pyridazinone], the melting point fell in the range of 182 to 184 °C.

With `CC(C)NC(=O)c1nc(-c2ccccc2)c(-c2ccc(=O)[nH]n2)s1` [Example 176, N-isopropyl-5-(6-oxo-1,6-dihydro-3-pyridazinyl)-4-phenyl-1,3-thiazole-2-carboxamide], the melting point is over 250 °C.

`CC(C)n1nc(-c2sc(NC(=O)c3cccc(C(F)(F)F)c3)nc2-c2ccccc2)ccc1=O` [Example 38, N-[5-(1-Isopropyl-6-oxo-1,6-dihydro-3-pyridazinyl)-4-phenyl-1,3-thiazol-2-yl]-3-(trifluoromethyl)benzamide] returned a melting point of 237 to 238 °C.

In turn, `CC(C)n1nc(-c2sc(NC(=O)c3ccc(Cl)cc3)nc2-c2ccccc2)ccc1=O` [Example 47, 4-Chloro-N-[5-(1-isopropyl-6-oxo-1,6-dihydro-3-pyridazinyl)-4-phenyl-1,3-thiazol-2-yl]benzamide] had a melting point of 205 to 206 °C.

The molecule `CC(C)n1nc(-c2sc(NC(=O)N(C)C)nc2-c2ccccc2)ccc1=O` [Example 50, N′-[5-(1-Isopropyl-6-oxo-1,6-dihydro-3-pyridazinyl)-4-phenyl-1,3-thiazol-2-yl]-N,N-dimethylurea] showed a melting point of 199 to 200 °C.

Turning to `CC(C)n1nc(-c2sc(Nc3ccccn3)nc2-c2ccccc2)ccc1=O` [Example 67, 2-Isopropyl-6-[4-phenyl-2-(2-pyridinylamino)-1,3-thiazol-5-yl]-3(2H)-pyridazinone], the melting point lay within 194 to 195 °C.

As for `Br.CC(C)n1nc(-c2sc(Nc3ccccc3)nc2-c2ccccc2)ccc1=O`, the melting point is 127 to 129 °C.

With `CC(C)n1nc(-c2sc(C(=O)NCCc3ccccn3)nc2-c2ccccc2)ccc1=O` [Example 234, 5-(1-Isopropyl-6-oxo-1,6-dihydro-3-pyridazinyl)-4-phenyl-N-[2-(2-pyridinyl)ethyl]-1,3-thiazole-2-carboxamide], the melting point lay in the range of 144 to 147 °C.

`COC(=O)Cn1nc(-c2sc(N)nc2-c2ccccc2)ccc1=O` [Example 89, Methyl [3-(2-amino-4-phenyl-1,3-thiazol-5-yl)-6-oxo-1 (6H)-pyridazinyl]acetate] had a melting point of 190 to 193 °C.

As to `CCCn1nc(-c2sc(C(=O)NCc3ccccn3)nc2-c2ccccc2)ccc1=O` [Example 203, 5-(6-Oxo-1-propyl-1,6-dihydro-3-pyridazinyl)-4-phenyl-N-(2-pyridinylmethyl)-1,3-thiazole-2-carboxamide], the melting point was in the range of 134 to 135.5 °C.

The molecule `CC(C)NC(=O)c1nc(-c2ccccc2F)c(-c2ccc(=O)n(C(C)C)n2)s1` [Example 184, 4-(2-fluorophenyl)-N-isopropyl-5-(1-isopropyl-6-oxo-1,6-dihydro-3-pyridazinyl)-1,3-thiazole-2-carboxamide] came in with a melting point of 129 to 130.5 °C.

In turn, `CCCNC(=O)c1nc(-c2ccccc2)c(-c2ccc(=O)[nH]n2)s1` [Example 169, 5-(6-oxo-1,6-dihydro-3-pyridazinyl)-4-phenyl-N-propyl-1,3-thiazole-2-carboxamide] returned a melting point of 232 to 233 °C.

Regarding `Nc1nc(-c2ccccc2)c(-c2ccc(=O)n(Cc3ccccc3)n2)s1` [Example 92, 6-(2-Amino-4-phenyl-1,3-thiazol-5-yl)-2-benzyl-3(2H)-pyridazinone], the melting point lay within 225 to 228 °C.

`CCCCNC(=O)c1nc(-c2ccccc2)c(-c2ccc(=O)n(C(C)C)n2)s1` [Example 215, N-butyl-5-(1-isopropyl-6-oxo-1,6-dihydro-3-pyridazinyl)-4-phenyl-1,3-thiazole-2-carboxamide] showed a melting point of 147.5 to 148.5 °C.

Regarding `COCCn1nc(-c2sc(C(N)=O)nc2-c2ccccc2)ccc1=O` [Example 168, 5-[1-(2-Methoxyethyl)-6-oxo-1,6-dihydro-3-pyridazinyl]-4-phenyl-1,3-thiazole-2-carboxamide], the melting point lay in the range of 198 to 199.5 °C.

Molecule `Cc1cccc(C(=O)Nc2nc(-c3ccccc3)c(-c3ccc(=O)n(C(C)C)n3)s2)c1` [Example 42, N-[5-(1-Isopropyl-6-oxo-1,6-dihydro-3-pyridazinyl)-4-phenyl-1,3-thiazol-2-yl]-3-methylbenzamide] gave a melting point of 198 to 199 °C.

For `CC(C)NCC(=O)Nc1nc(-c2ccccc2)c(-c2ccc(=O)n(C(C)C)n2)s1.Cl`, the melting point is over 250 °C.

In turn, `CC(C)NC(=O)c1nc(-c2cccc(Cl)c2)c(-c2ccc(=O)n(C(C)C)n2)s1` [Example 187, 4-(3-chlorophenyl)-N-isopropyl-5-(1-isopropyl-6-oxo-1,6-dihydro-3-pyridazinyl)-1,3-thiazole-2-carboxamide] yielded a melting point of 105 to 106 °C.

The values above are taken from US20050004134A1, “Thiazole derivative and pharmaceutical use thereof” (priority 2001, published 2005).
